Test results taken from publication PMC6201084 (Antimicrobial Agents and Chemotherapy, 2018).
Read-outs that look alike come from different tables or passages of the source.

Tests used:
[1] = target: neuraminidase (NA) of influenza B/Minnesota/23/2015 (WT-D197) (Influenza B virus, UniProt A0A1S5RAG6); type: biochemical; conditions: three independent experiments, read-out: IC50 (nM), mean ± SD
[2] = target: neuraminidase (NA) of influenza B/England/598/2014 (WT-H273) (Influenza B virus, UniProt A0A1S5RAG6); type: biochemical
Sequence of neuraminidase (NA) of influenza B/England/598/2014 (WT-H273) (A0A1S5RAG6 entry or part of it, added parts left off): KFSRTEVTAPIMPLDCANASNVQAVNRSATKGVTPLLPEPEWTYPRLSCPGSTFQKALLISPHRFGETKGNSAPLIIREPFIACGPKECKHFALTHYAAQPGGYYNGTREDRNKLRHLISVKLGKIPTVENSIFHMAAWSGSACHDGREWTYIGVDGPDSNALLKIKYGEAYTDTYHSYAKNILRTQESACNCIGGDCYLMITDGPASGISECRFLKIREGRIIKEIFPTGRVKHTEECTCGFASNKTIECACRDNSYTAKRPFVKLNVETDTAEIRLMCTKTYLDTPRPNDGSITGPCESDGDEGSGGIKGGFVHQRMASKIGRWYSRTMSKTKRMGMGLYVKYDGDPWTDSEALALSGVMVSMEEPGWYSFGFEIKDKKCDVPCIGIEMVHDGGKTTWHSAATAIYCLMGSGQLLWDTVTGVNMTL

Sequence of neuraminidase (NA) of influenza B/Minnesota/23/2015 (WT-D197) (A0A1S5RAG6 entry or part of it, added parts left off): as above

CCC(CC)[C@H](NC(C)=O)[C@@H]1[C@H](O)[C@@H](C(=O)O)C[C@H]1N=C(N)N [Peramivir, peramivir]
IC50 [1]: 1 ± 0.1 nM | IC50 ([2]; WT-H273 virus, three independent experiments, read-out: IC50 (nM), mean ± SD): 1 ± 0.05 nM | IC50 ([2]; approximate value given in discussion for wild-type influenza B viruses, read-out: IC50 for wild-type influenza B viruses): ~1 nM
